Converted amounts (≈) assume the structure as drawn.
Details: for aqueous solubility: pH 6.8

SMILES | MDR1-MDCK efflux ratio | intrinsic clearance, human liver microsomes [mL/min/kg] | intrinsic clearance, rat liver microsomes [mL/min/kg] | aqueous solubility [µg/mL] | fraction unbound, rat plasma | fraction unbound, human plasma
OCCn1cc(-c2ccc3c(c2)CC/C3=N\O)c(-c2ccncc2)n1 | 36.4 | 9.21 | 123 | 13.7 (≈ 41 µM) |  | 
O=c1c2cccnc2ncn1Cc1ccc2c(c1)CCCC2 | 0.68 | 25.8 | 711 |  |  | 
CN(Cc1ccc(Br)o1)C(=O)CN1CCCC1=O | 2.67 | ≤ 4.74 | 16.7 | 70 (≈ 222 µM) |  | 
Cc1ccccc1OCCn1c(N)nc2ccccc21 | 1.52 | 19.1 | 1760 | 40.6 (≈ 152 µM) |  | 
Cc1nccc(C2(C)CCN(CC(N)=O)CC2)n1 | 2.82 | ≤ 4.74 | ≤ 10.7 | 59.8 (≈ 241 µM) |  | 
O=C(CCc1ccco1)Nc1ccccc1OC(F)F | 0.533 | 116 | 831 | 44.6 (≈ 159 µM) |  | 
c1ccc(CC2=NCCN2)cc1 | 0.361 | ≤ 4.74 | ≤ 10.7 |  |  | 
NCCCc1nc(-c2ccncc2)cs1 |  | 29.3 | 239 |  |  | 
c1ccc2nc(OC3CCNCC3)cnc2c1 |  | ≤ 4.74 | 183 |  |  | 
N#Cc1cc(F)c(N2CCN(CCO)CC2)c(F)c1 | 0.524 | ≤ 4.74 | ≤ 10.7 | 41.3 (≈ 154 µM) |  | 
CCCc1nnc(N2CCC3(CCCC3)C2)s1 | 0.525 | 86.7 | 2160 |  |  | 
Cc1noc(C2CCN(CC(N)=O)CC2)n1 |  | 9.99 | 29.7 | 30.8 (≈ 137 µM) |  | 
OC(CNCc1ccc(OCc2cccs2)cc1)c1ccccc1 (configuration not stated) |  |  |  | 42.9 (≈ 126 µM) |  | 
CC(C)Cn1cnc2c1c(=O)[nH]c(=O)n2CC(C)C | 1.96 | ≤ 4.74 | 73.9 | 55.3 (≈ 209 µM) |  | 
COc1ccc(C2=N/C(=C/c3cc4ccccc4n3C(C)=O)C(=O)O2)cc1 |  |  |  | 2.34 (≈ 6.49 µM) |  | 
COCCc1ccc(OCC(O)CNC(C)C)cc1 (configuration not stated) |  |  |  |  | 1 | 
NC(=O)Cn1c2ccccc2c2nc3ccccc3nc21 |  |  |  | 0.15 (≈ 0.543 µM) |  | 
CCc1nc(C)cn2nc(-c3cc(=O)n4cc(C5CCN(C)CC5)cc(C)c4n3)cc12 | 3.62 | ≤ 4.74 | 25.7 | 17.7 (≈ 42.4 µM) | 0.0392 | 0.0738

SMILES | MDR1-MDCK efflux ratio | intrinsic clearance, human liver microsomes [mL/min/kg] | intrinsic clearance, rat liver microsomes [mL/min/kg] | aqueous solubility [µg/mL] | fraction unbound, rat plasma | fraction unbound, human plasma
C=CC(=O)Nc1cccc(Oc2nc(Nc3ccc(N4CCN(C)CC4)cc3)nc3ccoc23)c1 | 22 | 16.2 | 329 | 28.6 (≈ 60.8 µM) | 0.00619 | 0.014
Fc1cccc(CN2CCN(c3ncccn3)CC2)c1 | 0.527 | 111 | 1120 | 38 (≈ 140 µM) |  | 
CC(C)c1nnc(CNc2ncc(Br)cn2)n1C | 4.39 | ≤ 4.74 | ≤ 10.7 |  |  | 
COc1ccccc1-c1nnc([C@H]2CCN(Cc3ccccc3C)C2)o1 | 0.755 | 158 | 3190 | 37 (≈ 106 µM) |  | 
Fc1cccc(CCNCc2cc(-c3ccccc3)cn3nnnc23)c1 | 0.71 | 190 | 1720 | 13.7 (≈ 39.5 µM) |  | 
CC#CC(=O)N1CC[C@@H](n2cc(-c3ccc(Oc4c(F)cccc4F)cc3)c3c(N)n[nH]c(=O)c32)C1 | 50.2 | 41.7 | 519 | 2.7 (≈ 5.52 µM) | 0.00935 | 0.00845
NCc1nnc(CCc2ccccc2)o1 |  | ≤ 4.74 | ≤ 10.7 |  |  | 
Clc1cnc(Oc2ccc3cn[nH]c3c2)nc1 |  | 12.9 | 27.5 |  |  | 
Cc1ccc(=O)n(CCOc2ccc(Cl)c(F)c2)n1 | 0.684 | 71.2 | 631 |  |  | 
Cn1nc(C2CC2)c2[nH]c(-c3cccc(CN4CCOCC4)c3)nc21 | 52 | 18.8 | 244 | 49.4 (≈ 147 µM) |  | 
Cc1nc(NCc2cn(C)nc2-c2cccs2)n(C)n1 | 12.7 | ≤ 4.74 | 27.9 |  |  | 
C[C@H](NC(=O)CCC(F)(F)F)C(=O)N[C@@H]1C(=O)N(CCO)c2ncccc2-c2ccccc21 | 24 | ≤ 4.74 | 10.8 |  |  | 
Cc1cccc(NCCc2cc(F)cc3c2OCOC3)n1 | 0.374 | 397 | 5180 |  |  | 
COc1ccc(CCn2c(C3CC3)n[nH]c2=O)cc1 | 1 | 5.56 | 366 | 28.4 (≈ 109 µM) |  | 
N#Cc1ncn(Cc2ncc(-c3ccccc3)s2)c1C#N |  |  |  | 44.5 (≈ 153 µM) |  | 
Oc1cccc(/C=C/c2nc3ccccc3o2)c1 | 0.192 |  |  | 0.7 (≈ 2.95 µM) |  | 
COc1cc(C#N)ccc1Cn1ccnc1C(C)C | 2.82 | 17.3 | 166 |  |  | 

Second part, the compound after the results:

MDR1-MDCK efflux ratio | intrinsic clearance, human liver microsomes [mL/min/kg] | intrinsic clearance, rat liver microsomes [mL/min/kg] | aqueous solubility [µg/mL] | fraction unbound, rat plasma | fraction unbound, human plasma | SMILES
0.743 | 8.73 | 28.1 | 50.2 (≈ 220 µM) |  |  | CCCC(=O)Nc1ccc(C)c2ncccc12
1.41 | ≤ 4.74 | 106 | 39.9 (≈ 126 µM) |  |  | CCOc1ccc(C(=O)Nc2cnn(C3CCOCC3)c2)cn1
19.9 |  |  | 0.21 (≈ 0.532 µM) |  |  | Cc1cnc(NC(=O)c2cc(S(=O)(=O)N(C)C)ccc2N2CCCC2)s1
2.51 | ≤ 4.74 | 100 |  |  |  | CC(C)Oc1ccc(C#N)cc1NC1CCN(C)CC1
1.35 | ≤ 4.74 | 19.7 |  |  |  | Cc1cc(C(=O)NC(C)(C)C#N)nn1-c1ccc(F)cc1
4.08 | ≤ 4.74 | 54.8 | 78.4 (≈ 186 µM) |  |  | CCn1c(C)nc2cc(NC(=O)c3ccc(=O)n(CC(=O)N4CCCCC4)c3)ccc21
 | 67 | 193 |  |  |  | Cc1cc(N2CCC(C(=O)NC3CCCCC3)CC2)nc(-c2ccncc2)n1
4.06 | 9.23 | 84.8 | 21.4 (≈ 72.3 µM) |  |  | O=C(CCn1nnc2ccccc2c1=O)Nc1ccncc1
1.5 | ≤ 4.74 |  |  |  | 0.566 | NC1CCCC(C(=O)N2CCC(c3c[nH]c4ncccc34)CC2)C1 (configuration not stated)
2.07 | ≤ 4.74 | ≤ 10.7 | 42.9 (≈ 186 µM) |  |  | CCNC(=O)C1CN(c2cccc(C#N)n2)C1
1.45 | 432 | 3870 |  |  |  | Cc1ccc(NC(=O)CN(C)C2CCCCC2)cc1S(=O)(=O)N(C)C
43.2 | 12.1 | 178 |  |  |  | O=C(c1ccc(O)cc1)N1CCN(c2ncnc3c2CCC3)CC1
1.54 |  |  | 0.41 (≈ 1.07 µM) |  |  | O=C(O)c1ccc(-c2c[nH]c3ncc(-c4ccccc4)cc23)cc1C1CCCC1
0.959 | 447 | 1940 | 11.9 (≈ 29.4 µM) |  |  | Cc1ccc(C)c(NC(=O)CN2CCCN(c3ccc(C(F)(F)F)cn3)CC2)c1
2.41 | 52 | 771 | 24.1 (≈ 74.5 µM) |  |  | C/C=C/CC(=O)N1CCC(c2cc(Cc3ccccc3)n[nH]2)CC1
 | 174 | 1400 |  |  |  | COc1ccc2c(c1)CCCN(C(=O)NCCc1ccccn1)C2
1.47 | 264 | 1960 | 47 (≈ 123 µM) |  |  | COc1cccc(-c2ccc(C(=O)N(C)Cc3c(C)nn(C(C)C)c3C)o2)c1
0.839 | 7.57 | 165 |  |  |  | CN(CCCC1CCCC1)Cc1cc(=O)[nH]c(=O)[nH]1
 | 123 | 2600 |  |  |  | CN1C(=O)c2ccc(C(=O)N(CC3CCCCC3)C3CC3)cc2C1=O
1.86 | ≤ 4.74 | 20.9 |  |  |  | Cc1cnc(C(C)(C)NCC(=O)N(C)C)s1
0.766 | ≤ 4.74 | 96 | 78.5 (≈ 248 µM) |  |  | Cc1nc(-c2ccccc2)ccc1C(=O)N1CCCS1(=O)=O
0.831 |  | 3000 | 26.9 (≈ 76.8 µM) |  |  | CC(C(=O)Nc1ccccc1)N1CCCC(c2nc3ccccc3o2)C1 (configuration not stated)
0.547 | 25.3 | 191 | 15.4 (≈ 49.4 µM) |  |  | COc1ccc(C(=O)Nc2ccc3oc(C)nc3c2)c(OC)c1
0.874 | ≤ 4.74 | 548 |  |  |  | Cc1ccsc1-c1nsc(NC(=O)CN(C)C)n1
27.6 | ≤ 4.74 | 109 | 62.2 (≈ 154 µM) |  |  | COc1ccc(S(=O)(=O)CCC(=O)Nc2ccc3c(c2)N(C)C(=O)CO3)cc1
